Patent US12534496B2, “Polymorphic forms of Cyclo (-His-Pro) and methods of use to treat kidney disease” (NovMetaPharma Co., Ltd., priority 2018, dated 2026)
“Also recorded” adds a separate entry of the source.

What was measured:
Format in all cases: physicochemical
[1] = Dynamic vapor sorption (DVS) at 25 °C with post-DVS XRPD; conditions: for Post-DVS XRPD form: after DVS cycles at 25 °C
Procedure: DVS was carried out by placing an approximately 10-20 mg sample into a mesh vapour sorption balance pan and loaded into a DVS Intrinsic Dynamic Vapour Sorption Balance by Surface Measurement Systems. The sample was subjected to a ramping profile from 40 to 90% relative humidity (RH) at 10% increments, maintaining the sample at each step until a stable weight had been achieved (dm/dt 0.004%, minimum step length 30 minutes, maximum step length 500 minutes) at 25° C. After completion of the sorption cycle, the sample was dried using the same procedure to 0% RH and then a second sorption cycle back to 40% RH. Two cycles were performed. The weight change during the sorption/desorption cycles were plotted, allowing for the hygroscopic nature of the sample to be determined. XRPD analysis was then carried out on any solid retained.
(§1) Approximately, 10-20 mg of sample was placed into a mesh vapor sorption balance pan and loaded into a DVS Intrinsic dynamic vapor sorption balance by Surface Measurement Systems. The sample was subjected to a ramping profile from 40-90% relative humidity (RH) at 10% increments, maintaining the sample at each step until a stable weight had been achieved (dm/dt 0.004%, minimum step length 30 minutes, maximum step length 500 minutes) at 25° C. After completion of the sorption cycle, the sample was dried using the same procedure to 0% RH and then a second sorption cycle back to 40% RH. Two cycles were performed. The weight change during the sorption/desorption cycles were plotted, allowing for the hygroscopic nature of the sample to be determined. XRPD analysis was then carried out on any solid retained.

[2] = Vacuum oven heating of Pattern 2 (XRPD)
Procedure: i. 80° C. Heating of Pattern 2 • Ca. 2.2 g of pattern 2 material (prepared as per Section 5.6.1) was placed inside a vacuum oven set to 50° C.; • After 1 hour, a sample was taken and analyzed by XRPD; • Vial was returned to the vacuum oven and the temperature increased to 60° C.; • After 30 minutes, a sample was taken and analyzed by XRPD; • Vial was returned to the vacuum oven and the temperature increased to 80° C.; • After 18 hours at 80° C., a sample was taken and analyzed by XRPD; ii. Fast Rotary Evaporation in Ethanol/DCM • 1 g of received CHP pattern 1 was weighed in to a round bottom flask and dissolved in 40 mL of ethanol; • Once the solid had dissolved, 2 mL of dichloromethane was pipetted into the flask; • The flask was then attached to a rotary evaporator and fast evaporated at ambient temperature under vacuum; • A pale beige solid was recovered an analyzed by XRPD. 7. pH Solubility Assessment

[3] = Variable temperature dynamic vapour sorption (VT-DVS) at 40, 50, 60 °C; conditions: for Post-VT-DVS XRPD form: after cycles at 40, 50 and 60 °C
Procedure: as §1, with “Advantage” for “Intrinsic”, “40°” for “25°”, “RH.” for “RH. Two cycles were performed.”, “determined. The experiment was repeated at 50° C. and finally at 60° C.” for “determined.”

[4] = Solubility of CHP hydrate (Pattern 2) in EtOH/water/MtBE; conditions: organic solvent or mixture
[5] = 1-week stability assessment (40 °C/75% RH, 80 °C, ambient light; XRPD, HPLC purity)
Procedure: XRPD analysis was carried out on a sample of 5 g of CHP Hydrate. The sample was weighed in a glass vial, and 6 mL of a 90:10 ethanol/water mixture was added to make a slurry. The mixture was then agitated for approximately 24 hours at ambient temperature and then analyzed by XRPD. […] XPRD analysis was carried out to assess any change in the form of the material.

[6] = GMP stability study of CHP anhydrate and CHP hydrate under accelerated conditions (total impurities); conditions: for Growth of total Impurities: 40 °C/75% RH
Procedure: CHP anhydrate (Pattern 1) and hydrate (Pattern 2) compounds were manufactured under GMP conditions. A stability study for the CHP anhydrate compound was conducted under ccelerated conditions (40±5° C./75±5% RH) for six months and room temperature conditions (25±5° C./60±5% RH) for 12 months. A further stability study for the CHP hydrate compound was conducted under accelerated conditions (40±5° C./75±5% RH) for 6 months (Table 18).

O=C1N[C@@H](Cc2cnc[nH]2)C(=O)N2CCC[C@@H]12 [Pattern 2, Pyrrolo [1,2-a]pyrazine-1,4-dione, hexahydro-3-(1H-imidazol-5-ylmethyl)-, hydrate (1:1), (3S, 8aS)-]
Post-DVS XRPD form [1]: no change in form | Post-DVS XRPD form ([1]; listed as CHP pattern 2): no change in form | DVS water loss in equivalents ([1]; below 10% RH, 25 °C): 0.5 equiv. water | DVS weight loss ([1]; below 10% RH, 25 °C): 3.5 wt. % | XRPD form after heating ([2]; oven 80 °C, additional 18 hours): mixture of Pattern 1 and 2 | XRPD form after heating ([2]; vacuum oven 50 °C, 1 hour): predominately Pattern 2 with some Pattern 1 peaks | XRPD form after heating ([2]; vacuum oven, further 30 minutes (1.5 hour in total)): predominantly Pattern 2 with some Pattern 1 peaks | VT-DVS water loss in equivalents ([3]; 40 °C, from 10 to 0% RH): 0.8 equiv water | VT-DVS weight loss ([3]; 40 °C, from 10 to 0% RH): approx. 5.8 wt % | VT-DVS weight loss ([3]; 40 °C, from 10 to 0% RH, listed as CHP Hydrate, Pattern 2): 5.8 wt % | VT-DVS weight loss ([3]; 40 °C, from 10 to 0% RH, listed as CHP pattern 2): approximately 5.8 wt % | VT-DVS water loss in equivalents ([3]; 50 °C, from 20 to 0% RH): 0.8 equiv water | VT-DVS weight loss ([3]; 50 °C, from 20 to 0% RH): approximately 6.1 wt % | VT-DVS weight loss ([3]; 50 °C, from 20 to 0% RH, listed as CHP Hydrate, Pattern 2): 6.1 wt % | VT-DVS weight loss ([3]; 50 °C, from 20 to 0% RH, listed as CHP pattern 2): approx. 6.1 wt % | VT-DVS water loss in equivalents ([3]; 60 °C, from 20 to 0% RH): 1.0 equiv water | VT-DVS weight loss ([3]; 60 °C, from 20 to 0% RH): approximately 7 wt % | VT-DVS weight loss ([3]; 60 °C, from 20 to 0% RH, listed as CHP Hydrate, Pattern 2): 7 wt % | VT-DVS weight loss ([3]; 60 °C, from 20 to 0% RH, listed as CHP pattern 2): approx. 7 wt % | RH below which dehydration starts ([3]; VT-DVS at 40 °C): below 10 % RH | RH below which dehydration starts ([3]; VT-DVS at 50 °C): below 20 % RH | RH below which dehydration starts ([3]; VT-DVS at 60 °C): below 20 % RH | Post-VT-DVS XRPD form [3]: mixture of Patterns 1 and 2 | Post-VT-DVS XRPD form ([3]; listed as CHP pattern 2): mixture of pattern 1 and pattern 2; also recorded: mixture of pattern 1 and 2 | solubility ([4]; (EtOH/water = 9/1)/MtBE 3/0 (v/v), 5 °C): 121 mg/mL | solubility ([4]; (EtOH/water = 9/1)/MtBE 3/0 (v/v), 50 °C): > 200 mg/mL | solubility ([4]; (EtOH/water = 9/1)/MtBE 3/1 (v/v), 5 °C): 59 mg/mL | solubility ([4]; (EtOH/water = 9/1)/MtBE 3/1 (v/v), 50 °C): > 200 mg/mL | solubility ([4]; (EtOH/water = 9/1)/MtBE 3/3 (v/v), 5 °C): 30 mg/mL | solubility ([4]; (EtOH/water = 9/1)/MtBE 3/3 (v/v), 50 °C): 101 mg/mL | solubility ([4]; (EtOH/water = 9/1)/MtBE 3/6 (v/v), 5 °C): 6 mg/mL | solubility ([4]; (EtOH/water = 9/1)/MtBE 3/6 (v/v), 50 °C): 24 mg/mL | solubility ([4]; (EtOH/water = 9/1)/MtBE 3/9 (v/v), 5 °C): 6 mg/mL | solubility ([4]; (EtOH/water = 9/1)/MtBE 3/9 (v/v), 50 °C): 17 mg/mL | XRPD form after storage ([5]; 7 days at 40 °C/75% RH): No change in form | XRPD form after storage ([5]; 7 days at 40 °C/75% RH, listed as pattern 2): remain as pattern 2 | XRPD form after storage ([5]; 7 days at 40 °C/75% RH, listed as pattern 2 CHP): remained as pattern 2 | XRPD form after storage ([5]; 7 days at 80 °C): convert to pattern 1 | XRPD form after storage ([5]; 7 days at 80 °C, listed as pattern 2): dehydration from pattern 2 to pattern 1 | XRPD form after storage ([5]; 7 days at 80 °C, listed as pattern 2 CHP): converted to pattern 1 | XRPD form after storage ([5]; 7 days in ambient light): No change in form | XRPD form after storage ([5]; 7 days in ambient light, listed as pattern 2): remain as pattern 2 | XRPD form after storage ([5]; 7 days in ambient light, listed as pattern 2 CHP): remained as pattern 2 | Growth of total Impurities ([6]; 0M): 0% | Growth of total Impurities ([6]; 1M): 0% | Growth of total Impurities ([6]; 3M, listed as CHP hydrate (pattern 2)): 0.00% | Growth of total Impurities ([6]; 6M, listed as CHP hydrate (pattern 2)): 0.05% | Quality changes during stability study ([6]; accelerated conditions for 6 months): no significant quality changes
